Columns and labels:
Assay type in all cases: cell-based
bovine sperm [1] = assay: Ability of frozen-thawed bovine capacitated sperm to fertilize oocytes after 24 h incubation in sp-TALP (2-cell embryos, blastocysts); conditions: 0.2 μM clofilium in sp-TALP 24 h prior fertilization, vs control 24 h
Protocol: Bovine sperm was obtained by ejaculation. Ejaculate was diluted 1:1 in Optixcell. After 10 minutes of 34° C. incubation, semen was then diluted to a final concentration of 57 million of spermatozoa/mL in Optixcell. Optixcell is a TRIS citrate buffer containing liposomes extruded from egg yolk lecithins, glycerol and antibiotics described by CEE (Directive 88/407/CEE). Diluted semen was slowly cooled down to 4° C. (3 to 4 h equilibration in a tempered water-bath), 0.25 mL straws were filled and then frozen in a controlled rate freezer at a cooling rate of 5° C./min from 4° C. to −10° C., 40° C./min from −10° C. to −110° C., 15° C./min from −110° C. to […]. Straws were then stored in liquid nitrogen until in vitro fertilization. Straws were thawed in a water-bath at 37° C. for 45 s. Each straw was wiped with 70° ethanol before being opened. […] Sperm concentration was measured and 750 000 sperm cells are injected into a fertilization droplet (500 μL) containing oocytes bathing in fertilization medium. […] Sperm (1.5 M/mL) and cumulus oocyte complexes (COCs) co-culture were performed at 38.5° C. under gaseous atmosphere of 5% v/v CO2 and saturated humidity for 48 h and then fertilization outcome was assessed. […] Cleavage rate assessed at 48 h and blastocyst rate at day 9 post-fertilization. […]

mouse sperm = assay: Mouse sperm motility by CASA analysis (VCL) after 12 h capacitation; conditions: 0.2 μM clofilium, 12 h capacitation in M16-BSA medium at 37° C., vs control
Protocol: 3. The viability of mouse sperm was determined by the measurement of the sperm motility. The motility analysis was performed using Computer Assisted Semen Analysis (CASA analysis). The CASA analysis was always performed in the examples using a CEROS™, Hamilton Thorne Bioscience, USA. VCL was thus measured. As known to the skilled person, VCL (for Curvilinear Velocity) is the average velocity of the sperm head through its real path. For this analysis, samples were diluted at 0.1 10^6/mL. The diluted sample was incubated for 12 hours at 37° C. in a capacitation medium of M16-BSA medium, with or without 0.2 μM clofilium. For the CASA measurement, 10 μL of the sample were placed on a 2X-CEL Slides, […], Leja Products B.V.,Netherlands, placed on the heating stage (37° C.) of the CEROS ™. A total of 10 automatically selected fields were analyzed.

bovine sperm [2] = assay: Bovine sperm motility by CASA analysis (VCL, total motility) after 24 h in capacitation medium; conditions: 24 h in capacitation medium at 37° C., vs control
Protocol: For motility, sperm were incubated with 0.2, 0.5, 1 and 5 μM clofilium diluted in the capacitation medium for 24 hours at 37° C. under saturated humidity. Sperm motility was measured using Computer Assisted Semen Analysis (CASA analysis). The CASA analysis was performed using a CEROS™, Hamilton Thorne Bioscience, USA. VCL (curvilinear velocity) was then measured. 2. The viability of the capacitated sperm was determined by the measurement of the sperm motility. The motility analysis was carried out as in Example 1.3. The first results are shown in FIGS. 6A and 6B, which illustrates the motility (in terms of VCL, in μm/s), i.e. the sperm velocity, sperm being incubated 24 h in a capacitation medium prior CASA, for each of the solutions tested: control (“[0 μM]”), 0.2 μM clofilium (“[0.2 μM]”), 0.5 μM clofilium (“[0.5 μM]” or “[0.5]”), 1 μM clofilium (“[1 μM]” or “[1]”) and 5 μM clofilium (“[5 μM]” or “[5]”) (FIG. 6A) and which illustrates the total motility (%), for each of the solutions tested “[0μM ]”, “[0.2 μM]” (or “[0.2]”), “[0.5 μM ]” (or “[0.5]”), “[1 μM ]” (or “[1]”) and “[5 μM ]” (or “[5]”) (FIG. 6B). As known to the skilled person, the “total motility”indicates the overall percentage of sperm that are moving in any direction (VAP>1μm/s).

SMILES: CCCCCCC[N+](CC)(CC)CCCCc1ccc(Cl)cc1 [clofilium]
- percentage of blastocysts vs matured oocytes 9 days after fertilization (bovine sperm [1]): improves the yield of bovine blastocysts
- motility of sperm (in terms of VCL) (mouse sperm): higher velocity than the “control”
- motility (in terms of VCL), sperm velocity (bovine sperm [2]; 0.2 μM clofilium): higher velocity than the non-treated
- motility (in terms of VCL), sperm velocity (bovine sperm [2]; 0.5 μM clofilium): higher velocity than the non-treated
- motility (in terms of VCL), sperm velocity (bovine sperm [2]; 1 μM clofilium): higher velocity than the non-treated

Reference: patent US20230292743A1, “Method for increasing the lifespan and motility of animal sperm using an inhibitor of Slo3 potassium channel” (IMV TECHNOLOGIES, priority 2017, published 2023)
